Calls of active or inactive are those of the source.
Legend:
Trypsin = Trypsin (Sus scrofa, UniProt P00761); experiment: porcine trypsin inhibitors, dose response, selectivity assay for Rce1 protease inhibitor project, biochemical, quenched peptide fluorescence, cherry-pick (AID 488789)
HEK293 [1] = experiment: cells; assay type: functional, cell-based; details: Homo sapiens
HEK293 [2] = experiment: cells; assay type: functional, cell-based; details: Homo sapiens; remark: listed apart in the source
HEK293 [3] = experiment: NOD2 signaling inhibitors in MDP-stimulated cells, cell-based, uHTS, luminescence (AID 2001); assay type: functional; details: Homo sapiens
[4] = biological target: Nucleotide-binding oligomerization domain-containing protein 2 (Homo sapiens, UniProt Q9HC29); experiment: NOD2 signaling inhibitors, cell-based, luminescence, uHTS, HEK293 (AID 1566); assay type: functional
HEK293 [5] = experiment: NOD1 signaling inhibitors, primary screen, cell-based, luminescence, uHTS (AID 1578); assay type: functional; details: Homo sapiens
HEK293 [6] = experiment: cells; assay type: functional, cell-based; details: Homo sapiens; remark: listed apart in the source
[7] = A cytotoxicity screen of small molecule inhibitors of the PhoP region in Salmonella typhi identified in the primary screen. [Related pubchem assays: 1850, 1864, 1985 ]; assay type: functional
[8] = biological target: Voltage-dependent T-type calcium channel subunit alpha-1H (Homo sapiens, UniProt O95180); assay type: functional;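 also: channel activity triggered by adding a high calcium stimulation buffer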
[9] = biological target: DNA dC->dU-editing enzyme APOBEC-3G (Homo sapiens, UniProt Q9HC16); experiment: Dose Response confirmation of small molecule APOBEC3G DNA Deaminase Inhibitors via a fluorescence-based single-stranded DNA deaminase assay. [Related pubchem assays (depositor defined):AID493012, AID493028]; assay type: functional
[10] = biological target: T1, Replicative DNA helicase DnaB (Mycobacterium tuberculosis, UniProt P9WMR3); experiment: DnaB intein splicing inhibitors, dose response, biochemical, cell-free fluorescence (AID 449749); assay type: functional
T1 sequence (P9WMR3 whole entry): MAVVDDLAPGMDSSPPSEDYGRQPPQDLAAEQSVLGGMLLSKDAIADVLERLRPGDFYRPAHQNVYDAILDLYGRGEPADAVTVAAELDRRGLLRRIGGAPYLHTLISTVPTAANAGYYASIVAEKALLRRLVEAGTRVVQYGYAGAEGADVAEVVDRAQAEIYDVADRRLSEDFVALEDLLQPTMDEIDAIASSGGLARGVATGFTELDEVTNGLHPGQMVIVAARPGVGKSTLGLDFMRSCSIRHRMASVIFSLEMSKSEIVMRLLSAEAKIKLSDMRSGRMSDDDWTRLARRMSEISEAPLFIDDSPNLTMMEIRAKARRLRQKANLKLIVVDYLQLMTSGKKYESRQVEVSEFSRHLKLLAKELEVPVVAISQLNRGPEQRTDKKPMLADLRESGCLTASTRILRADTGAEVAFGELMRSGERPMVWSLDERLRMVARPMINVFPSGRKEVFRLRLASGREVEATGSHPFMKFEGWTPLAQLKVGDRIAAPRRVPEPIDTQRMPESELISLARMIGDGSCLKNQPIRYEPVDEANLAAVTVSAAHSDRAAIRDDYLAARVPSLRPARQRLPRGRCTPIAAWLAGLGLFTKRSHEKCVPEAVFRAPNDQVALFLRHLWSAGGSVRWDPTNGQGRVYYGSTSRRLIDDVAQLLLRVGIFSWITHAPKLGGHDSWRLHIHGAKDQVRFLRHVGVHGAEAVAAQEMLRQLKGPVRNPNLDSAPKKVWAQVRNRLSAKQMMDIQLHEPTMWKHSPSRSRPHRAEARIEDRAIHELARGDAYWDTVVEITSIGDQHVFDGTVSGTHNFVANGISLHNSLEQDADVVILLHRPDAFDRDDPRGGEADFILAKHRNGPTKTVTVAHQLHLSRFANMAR

Protein RecA = biological target: T2, Protein RecA (Mycobacterium tuberculosis, UniProt P9WHJ3); experiment: Fluorescence Cell-Free Homogeneous Dose Retest to Identify Inhibitors of RecA-Intein Splicing Activity. [Related pubchem assays (depositor defined):AID2097, AID2223, AID489010, AID492950]; assay type: functional
T2 sequence (P9WHJ3 whole entry): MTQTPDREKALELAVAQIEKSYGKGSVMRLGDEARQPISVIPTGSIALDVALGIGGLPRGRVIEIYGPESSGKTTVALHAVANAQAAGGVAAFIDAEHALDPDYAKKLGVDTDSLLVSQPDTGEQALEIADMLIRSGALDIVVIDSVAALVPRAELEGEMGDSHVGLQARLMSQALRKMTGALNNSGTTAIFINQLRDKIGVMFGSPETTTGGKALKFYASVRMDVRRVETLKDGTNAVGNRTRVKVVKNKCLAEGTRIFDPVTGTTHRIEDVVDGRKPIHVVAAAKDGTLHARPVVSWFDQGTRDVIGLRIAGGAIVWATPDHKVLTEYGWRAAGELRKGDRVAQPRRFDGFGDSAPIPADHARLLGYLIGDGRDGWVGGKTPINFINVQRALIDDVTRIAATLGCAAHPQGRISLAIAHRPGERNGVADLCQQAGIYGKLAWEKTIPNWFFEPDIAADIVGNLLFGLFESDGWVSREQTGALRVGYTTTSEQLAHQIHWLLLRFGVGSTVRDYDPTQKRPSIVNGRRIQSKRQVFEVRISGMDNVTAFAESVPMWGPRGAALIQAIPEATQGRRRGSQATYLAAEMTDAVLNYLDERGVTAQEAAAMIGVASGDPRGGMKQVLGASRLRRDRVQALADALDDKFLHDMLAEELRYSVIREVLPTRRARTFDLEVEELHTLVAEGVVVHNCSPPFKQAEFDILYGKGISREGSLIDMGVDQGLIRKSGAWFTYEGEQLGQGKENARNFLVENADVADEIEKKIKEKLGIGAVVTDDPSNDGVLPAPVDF

Leucine aminopeptidase = biological target: T3, Leucine aminopeptidase (Plasmodium falciparum 3D7, UniProt Q8IL11); experiment: P. falciparum M17LAP inhibitors, primary screen, biochemical, fluorogenic H-Leu-NHMec substrate, 1536-well (AID 1619); assay type: functional
T3 sequence (Q8IL11 whole entry): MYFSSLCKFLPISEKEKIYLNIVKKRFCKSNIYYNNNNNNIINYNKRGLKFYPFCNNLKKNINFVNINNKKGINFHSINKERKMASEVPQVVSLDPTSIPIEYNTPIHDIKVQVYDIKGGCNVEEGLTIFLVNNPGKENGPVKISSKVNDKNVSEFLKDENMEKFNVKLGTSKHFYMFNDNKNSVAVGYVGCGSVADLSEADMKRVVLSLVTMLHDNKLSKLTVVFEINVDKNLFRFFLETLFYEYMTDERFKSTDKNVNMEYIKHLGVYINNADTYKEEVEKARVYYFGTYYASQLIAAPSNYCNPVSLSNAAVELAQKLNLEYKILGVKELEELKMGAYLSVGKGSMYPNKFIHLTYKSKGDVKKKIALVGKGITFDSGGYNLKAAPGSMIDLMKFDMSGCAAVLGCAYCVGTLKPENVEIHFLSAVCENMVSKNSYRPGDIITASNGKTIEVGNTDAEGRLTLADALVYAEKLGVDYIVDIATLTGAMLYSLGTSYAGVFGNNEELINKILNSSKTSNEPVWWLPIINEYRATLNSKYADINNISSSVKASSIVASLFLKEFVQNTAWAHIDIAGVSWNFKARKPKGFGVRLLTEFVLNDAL

Aminopeptidase N = biological target: T4, Aminopeptidase N (Plasmodium falciparum FcB1/Columbia, UniProt O96935); experiment: P. falciparum M1AAP inhibitors, biochemical, fluorogenic H-Leu-NHMec substrate, 1536-well (AID 1445); design: species or system Plasmodium falciparum 3D7, 3D7
T4 sequence (O96935 whole entry): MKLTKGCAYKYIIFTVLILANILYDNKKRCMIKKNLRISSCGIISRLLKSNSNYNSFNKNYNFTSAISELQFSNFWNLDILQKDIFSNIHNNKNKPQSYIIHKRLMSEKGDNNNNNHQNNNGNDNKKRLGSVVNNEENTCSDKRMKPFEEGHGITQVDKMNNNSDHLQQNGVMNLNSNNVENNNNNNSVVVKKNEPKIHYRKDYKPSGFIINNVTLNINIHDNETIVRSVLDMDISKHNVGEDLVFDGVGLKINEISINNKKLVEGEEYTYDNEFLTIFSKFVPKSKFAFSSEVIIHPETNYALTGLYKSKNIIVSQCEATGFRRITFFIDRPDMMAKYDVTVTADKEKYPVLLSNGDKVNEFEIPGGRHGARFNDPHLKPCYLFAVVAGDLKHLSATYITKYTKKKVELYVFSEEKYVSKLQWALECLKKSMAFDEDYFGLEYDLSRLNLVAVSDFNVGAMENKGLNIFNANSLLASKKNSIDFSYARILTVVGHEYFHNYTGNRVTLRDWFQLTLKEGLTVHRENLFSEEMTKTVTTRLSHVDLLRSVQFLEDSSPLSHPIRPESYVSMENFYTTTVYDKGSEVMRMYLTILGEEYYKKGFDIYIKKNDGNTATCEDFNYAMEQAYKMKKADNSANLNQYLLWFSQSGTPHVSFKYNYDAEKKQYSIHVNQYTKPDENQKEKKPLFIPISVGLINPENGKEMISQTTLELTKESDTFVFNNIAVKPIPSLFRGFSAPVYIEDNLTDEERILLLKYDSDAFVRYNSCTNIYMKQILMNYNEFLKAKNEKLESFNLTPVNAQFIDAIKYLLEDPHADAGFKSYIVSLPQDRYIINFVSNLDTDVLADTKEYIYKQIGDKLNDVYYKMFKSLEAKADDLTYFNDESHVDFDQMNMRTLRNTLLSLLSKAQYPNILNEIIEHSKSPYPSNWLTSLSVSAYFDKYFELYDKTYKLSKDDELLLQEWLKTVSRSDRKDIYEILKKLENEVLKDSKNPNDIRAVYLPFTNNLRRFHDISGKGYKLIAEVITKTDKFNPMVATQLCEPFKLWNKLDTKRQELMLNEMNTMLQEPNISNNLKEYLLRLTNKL

[11] = cytotoxicity toward NIH3T3 fibroblasts, dose response, counter-screen, cell-based, ATP luminescence, mouse fibroblasts (AID 2010); assay type: functional;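 also: cells exposed to compound for about 90 hours before reading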
[12] = inhibitors of intracellular T. cruzi replication, confirmation, NIH3T3 host cells, beta-gal luminescence (AID 2044); assay type: functional, cell-based;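 also: intracellular parasites grown in NIH/3T3 mouse fibroblasts as host cells; luminescent beta-galactosidase reporter signal from transgenic T. cruzi replicating inside host cells; inhibitors lower the luminescence signal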
CAAX prenyl protease 2 = biological target: T5, CAAX prenyl protease 2 (Saccharomyces cerevisiae S288c, UniProt Q03530); assay type: biochemical
T5 sequence (Q03530 whole entry): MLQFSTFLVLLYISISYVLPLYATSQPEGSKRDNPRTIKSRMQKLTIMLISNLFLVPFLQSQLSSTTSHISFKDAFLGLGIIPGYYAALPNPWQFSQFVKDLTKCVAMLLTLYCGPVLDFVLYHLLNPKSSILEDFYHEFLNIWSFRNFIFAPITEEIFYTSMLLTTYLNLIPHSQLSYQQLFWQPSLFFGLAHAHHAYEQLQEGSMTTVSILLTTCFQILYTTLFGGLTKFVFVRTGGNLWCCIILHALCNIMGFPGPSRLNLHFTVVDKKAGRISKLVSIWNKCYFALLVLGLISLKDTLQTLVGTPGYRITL

[13] = HeLa cell cytotoxicity, dose response, cytotoxicity control for MgcRacGAP inhibitor project (AID 624300); assay type: functional
[14] = biological target: T6, Rac GTPase-activating protein 1 (Homo sapiens, UniProt Q9H0H5); experiment: MgcRacGAP GTPase-activating activity inhibitors, confirmation, biochemical, ADP Hunter fluorescence, primary and confirmatory (AID 624330); assay type: functional
T6 sequence (Q9H0H5 whole entry): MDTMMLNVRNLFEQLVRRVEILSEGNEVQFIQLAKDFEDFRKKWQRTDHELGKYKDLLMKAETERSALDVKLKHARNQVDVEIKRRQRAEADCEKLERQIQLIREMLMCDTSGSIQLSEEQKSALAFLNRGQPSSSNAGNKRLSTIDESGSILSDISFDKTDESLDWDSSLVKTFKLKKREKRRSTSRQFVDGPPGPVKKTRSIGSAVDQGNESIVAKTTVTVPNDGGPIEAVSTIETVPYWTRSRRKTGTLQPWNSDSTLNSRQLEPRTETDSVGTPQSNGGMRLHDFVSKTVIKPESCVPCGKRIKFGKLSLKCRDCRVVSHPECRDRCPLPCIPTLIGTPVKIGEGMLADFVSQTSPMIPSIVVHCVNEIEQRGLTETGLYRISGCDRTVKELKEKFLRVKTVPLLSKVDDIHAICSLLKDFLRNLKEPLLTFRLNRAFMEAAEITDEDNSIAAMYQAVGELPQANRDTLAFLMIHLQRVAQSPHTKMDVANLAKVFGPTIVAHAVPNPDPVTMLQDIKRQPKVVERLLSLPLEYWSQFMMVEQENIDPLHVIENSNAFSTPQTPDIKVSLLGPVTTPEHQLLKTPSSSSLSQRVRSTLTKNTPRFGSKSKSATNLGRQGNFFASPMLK

Chain of DNA dC->dU-editing enzyme APOBEC-3G (Q9HC16 whole entry): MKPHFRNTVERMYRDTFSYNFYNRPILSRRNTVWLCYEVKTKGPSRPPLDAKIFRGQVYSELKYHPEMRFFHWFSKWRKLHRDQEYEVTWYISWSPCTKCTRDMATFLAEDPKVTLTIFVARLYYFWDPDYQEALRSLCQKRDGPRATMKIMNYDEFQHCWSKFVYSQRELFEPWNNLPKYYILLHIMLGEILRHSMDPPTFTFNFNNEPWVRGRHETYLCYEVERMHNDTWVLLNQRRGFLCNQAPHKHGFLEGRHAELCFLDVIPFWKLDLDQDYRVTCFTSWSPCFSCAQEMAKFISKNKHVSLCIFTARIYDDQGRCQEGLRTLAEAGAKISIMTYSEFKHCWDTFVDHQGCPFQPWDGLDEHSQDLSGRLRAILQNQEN
Chain of Trypsin (P00761 whole entry): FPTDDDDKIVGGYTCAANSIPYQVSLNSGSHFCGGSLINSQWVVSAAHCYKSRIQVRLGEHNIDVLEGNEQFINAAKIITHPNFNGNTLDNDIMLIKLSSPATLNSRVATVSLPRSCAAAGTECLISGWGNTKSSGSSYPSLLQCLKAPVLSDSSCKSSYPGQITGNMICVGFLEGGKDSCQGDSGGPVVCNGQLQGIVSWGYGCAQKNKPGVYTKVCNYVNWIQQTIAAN
Chain of Voltage-dependent T-type calcium channel subunit alpha-1H (O95180 whole entry): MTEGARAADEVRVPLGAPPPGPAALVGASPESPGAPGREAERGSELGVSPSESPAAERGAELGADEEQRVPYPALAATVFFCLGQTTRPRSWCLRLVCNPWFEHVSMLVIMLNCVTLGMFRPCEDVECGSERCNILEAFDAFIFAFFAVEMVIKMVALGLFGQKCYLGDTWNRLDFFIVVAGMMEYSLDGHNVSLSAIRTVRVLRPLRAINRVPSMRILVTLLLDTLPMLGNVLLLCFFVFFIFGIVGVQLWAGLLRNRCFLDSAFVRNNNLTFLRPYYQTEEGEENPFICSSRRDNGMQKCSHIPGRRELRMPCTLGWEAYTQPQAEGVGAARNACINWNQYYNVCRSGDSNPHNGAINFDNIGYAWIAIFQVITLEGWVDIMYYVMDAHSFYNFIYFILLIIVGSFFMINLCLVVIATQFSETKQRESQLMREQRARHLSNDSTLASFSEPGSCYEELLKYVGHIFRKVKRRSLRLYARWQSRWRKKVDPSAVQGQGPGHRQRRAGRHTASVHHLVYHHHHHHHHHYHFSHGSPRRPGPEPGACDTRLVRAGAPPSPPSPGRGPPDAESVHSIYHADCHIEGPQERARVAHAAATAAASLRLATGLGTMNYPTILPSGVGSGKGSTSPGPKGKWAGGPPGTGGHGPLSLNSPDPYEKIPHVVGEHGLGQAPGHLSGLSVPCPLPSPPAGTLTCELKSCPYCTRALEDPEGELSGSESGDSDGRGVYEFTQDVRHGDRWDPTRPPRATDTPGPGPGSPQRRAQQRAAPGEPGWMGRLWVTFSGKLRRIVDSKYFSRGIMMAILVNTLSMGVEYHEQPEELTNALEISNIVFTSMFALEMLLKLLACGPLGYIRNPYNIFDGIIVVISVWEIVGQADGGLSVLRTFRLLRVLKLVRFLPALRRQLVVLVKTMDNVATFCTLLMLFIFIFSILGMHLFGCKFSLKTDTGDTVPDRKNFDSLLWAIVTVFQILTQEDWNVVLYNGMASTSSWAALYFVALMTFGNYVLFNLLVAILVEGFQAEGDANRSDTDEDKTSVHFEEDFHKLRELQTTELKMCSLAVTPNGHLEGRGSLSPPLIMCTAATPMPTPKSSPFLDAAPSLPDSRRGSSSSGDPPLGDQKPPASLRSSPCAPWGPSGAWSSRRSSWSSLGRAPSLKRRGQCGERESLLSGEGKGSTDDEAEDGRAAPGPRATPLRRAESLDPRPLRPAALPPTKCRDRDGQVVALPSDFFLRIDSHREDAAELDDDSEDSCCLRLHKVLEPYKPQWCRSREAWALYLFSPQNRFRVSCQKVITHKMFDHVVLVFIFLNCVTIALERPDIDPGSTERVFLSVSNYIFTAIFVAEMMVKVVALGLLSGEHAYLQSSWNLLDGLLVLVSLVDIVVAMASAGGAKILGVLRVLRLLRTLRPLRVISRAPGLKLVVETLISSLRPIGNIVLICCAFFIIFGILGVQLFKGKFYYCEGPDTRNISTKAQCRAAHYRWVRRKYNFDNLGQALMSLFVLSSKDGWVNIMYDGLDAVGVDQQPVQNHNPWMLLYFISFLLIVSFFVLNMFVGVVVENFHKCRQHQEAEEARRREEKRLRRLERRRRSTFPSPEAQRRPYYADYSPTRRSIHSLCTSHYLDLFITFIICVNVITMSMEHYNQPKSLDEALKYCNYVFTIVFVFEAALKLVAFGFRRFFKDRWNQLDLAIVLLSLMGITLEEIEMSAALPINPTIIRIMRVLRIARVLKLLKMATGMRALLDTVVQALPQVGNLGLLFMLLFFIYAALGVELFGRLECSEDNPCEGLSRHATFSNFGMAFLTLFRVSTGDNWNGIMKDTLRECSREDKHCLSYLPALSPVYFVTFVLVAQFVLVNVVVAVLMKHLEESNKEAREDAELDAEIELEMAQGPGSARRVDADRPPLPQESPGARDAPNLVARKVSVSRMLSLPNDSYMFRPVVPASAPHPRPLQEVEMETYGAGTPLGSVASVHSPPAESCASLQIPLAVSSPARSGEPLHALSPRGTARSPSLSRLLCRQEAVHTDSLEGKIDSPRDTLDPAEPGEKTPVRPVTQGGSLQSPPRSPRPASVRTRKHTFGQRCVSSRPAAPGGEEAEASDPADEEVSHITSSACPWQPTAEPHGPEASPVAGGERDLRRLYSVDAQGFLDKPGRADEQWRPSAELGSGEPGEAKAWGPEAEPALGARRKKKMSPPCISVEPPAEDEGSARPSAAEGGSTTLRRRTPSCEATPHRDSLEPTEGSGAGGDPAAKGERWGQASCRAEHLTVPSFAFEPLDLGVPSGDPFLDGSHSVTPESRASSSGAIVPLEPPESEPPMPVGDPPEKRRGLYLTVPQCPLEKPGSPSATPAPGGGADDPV
Chain of Nucleotide-binding oligomerization domain-containing protein 2 (Q9HC29 whole entry, the tested form may be a part): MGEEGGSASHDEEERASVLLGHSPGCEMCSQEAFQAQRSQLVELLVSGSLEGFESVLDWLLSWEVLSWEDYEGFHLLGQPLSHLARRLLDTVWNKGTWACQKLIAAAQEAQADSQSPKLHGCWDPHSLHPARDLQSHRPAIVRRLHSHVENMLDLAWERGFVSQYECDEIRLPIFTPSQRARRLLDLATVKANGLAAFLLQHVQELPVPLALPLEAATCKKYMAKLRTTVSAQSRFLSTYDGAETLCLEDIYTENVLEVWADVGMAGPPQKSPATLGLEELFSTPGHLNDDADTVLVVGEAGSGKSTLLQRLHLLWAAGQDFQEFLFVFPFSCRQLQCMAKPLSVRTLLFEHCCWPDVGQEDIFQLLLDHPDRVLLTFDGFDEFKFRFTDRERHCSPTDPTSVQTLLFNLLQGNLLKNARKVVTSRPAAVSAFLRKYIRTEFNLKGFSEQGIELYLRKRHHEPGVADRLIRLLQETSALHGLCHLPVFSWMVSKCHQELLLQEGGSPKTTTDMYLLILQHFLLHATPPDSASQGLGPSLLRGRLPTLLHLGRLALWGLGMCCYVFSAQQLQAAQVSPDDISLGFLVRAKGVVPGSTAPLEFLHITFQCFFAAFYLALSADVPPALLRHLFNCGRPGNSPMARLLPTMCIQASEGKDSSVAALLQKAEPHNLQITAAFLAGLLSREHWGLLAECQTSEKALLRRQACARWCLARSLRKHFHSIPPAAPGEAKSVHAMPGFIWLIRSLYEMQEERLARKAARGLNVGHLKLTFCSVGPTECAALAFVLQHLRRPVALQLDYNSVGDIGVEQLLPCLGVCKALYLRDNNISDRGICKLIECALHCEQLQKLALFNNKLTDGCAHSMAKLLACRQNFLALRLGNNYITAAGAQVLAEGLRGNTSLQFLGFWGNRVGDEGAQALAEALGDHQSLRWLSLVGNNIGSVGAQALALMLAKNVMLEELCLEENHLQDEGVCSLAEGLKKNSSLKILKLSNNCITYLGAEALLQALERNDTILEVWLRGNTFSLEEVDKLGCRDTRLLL

Compound: COCCCn1c(N)c(C(=O)NCc2ccco2)c2nc3ccccc3nc21
- AC50 (Trypsin): 10.3 µM (active)

Compound: COc1ccc(-c2c[nH]nc2-c2ccc(OCc3ccccc3F)cc2O)cc1OC
- IC50 (HEK293 [1]): 6.09 µM (active)
- IC50 (HEK293 [2]): > 20 µM (inactive)
- IC50 (HEK293 [3]): 7.5 µM (active)
- EC50 [4]: > 20 µM (inactive)
- EC50 (HEK293 [5]): 9.16 µM (active)
- IC50 (HEK293 [6]): 11.7 µM (active)

Compound: CCC1Oc2ccc(C)cc2N(CC(=O)NCC2COc3ccccc3O2)C1=O (stereo not drawn)
- EC50 [7]: > 50 µM (active)
- EC50 [8]: 5.63 µM (active)

Compound: O=c1oc2ccccc2nc1/C=C(\O)c1ccccc1
- EC50 [7]: > 50 µM (active)

Compound: O=C(O)c1ccc(-n2c(-c3ccc(Br)cc3)n[nH]c2=S)cc1
- IC50 [9]: 9.1 µM (active)

Compound: Cc1ccc(SCc2n[nH]c3c2C2(CCSCC2)C(C#N)=C(N)O3)cc1
- AC50 [10]: 2.94 µM (active)
- EC50 (Protein RecA): 2.42 µM (active)
- IC50 (Leucine aminopeptidase): 91 µM (active)

Compound: CCCN(CCC)CC(=O)Nc1cccc2c1OCO2
- EC50 [7]: > 50 µM (active)

Compound: COc1ccc(S(=O)(=O)NC2=NC(=O)/C(=C\c3cc(OC)c(OC)cc3[N+](=O)[O-])S2)cc1
- IC50 (Aminopeptidase N): 22.4 µM (active)

Compound: COc1ccc(C2CC(c3ccc4ccccc4c3)=NN2C(=O)CNC2CCCCC2)cc1 (stereo not drawn)
- EC50 [11]: > 30 µM (not active)
- EC50 [12]: 2.76 µM (active)
- AC50 (CAAX prenyl protease 2): 9.16 µM (active)
- CC50 [13]: 39 µM (active)
- IC50 [14]: 110 µM (active)
- AC50 (Trypsin): > 100 µM (inactive)

Compound: O=C(Nc1cc(S(=O)(=O)N2CCOCC2)ccc1N1CCCCC1)c1ccc(Cl)cc1
- IC50 [9]: 50.5 µM (active)
